Assay results: US20260200849A1, “CATIONIC LIPIDS AND PREPARATION METHOD THEREOF” (RiboX Therapeutics HK Limited, priority 2024, published 2026)
Where “and” joins values, the source holds several entries; their conditions need not be identical. Equal entries are not always repeated. Where two headings read alike, the source gives them in different places.

Legend:
[1] = LNP size and polydispersity index (PDI) by dynamic light scattering (Zetasizer); type: physicochemical; conditions: for Size (nm): Formulation No. 001 (Ionizable lipid:DSPC:cholesterol:DMG-PEG2000 = 50:10:38.5:1.5, N/P 6), RNA No. 331
Procedure: (§1) The LNP size and polydispersity index (PDI), determined by dynamic light scattering (DLS), and zeta potential were measured by a Zetasizer machine (Malvern). RNA concentration and encapsulation efficacy (EE %) were analyzed by the Quant-IT Ribogreen kit by calculating the percentage encapsulation at 100%—(RNA-LNPs/RNA-LNPs with Triton X-100).

[2] = RNA encapsulation efficacy (EE %) by Quant-IT Ribogreen kit; type: physicochemical; conditions: LNP
Procedure: as §1

Hep G2 cells [3] = assay: In vitro expression: luciferase activity in Hep G2 cells transfected with RNA-LNPs; type: cell-based; conditions: Formulation No. 001, RNA No. 331 (firefly-luciferase), 100 ng/mL RNA-LNPs, 72 hours post transfection
Procedure: 2E5 Hep G2 cells were transfected with 100 ng/mL of RNA-LNPs encoding for firefly-luciferase. At 72 hours post transfection, the cells were washed and lysed. The luciferase expression (2-well repeat) was determined in the cell lysates with the luciferase assay reagent kit (Promega), according to the kit protocol, luciferase activity was measured by a luminometer.

Hep G2 cells [4] = assay: In vitro toxicity: Hep G2 cell viability by CellTiter-Glo; type: cell-based; conditions: Formulation No. 001, RNA No. 331, 1 μg/mL RNA-LNPs, 72 hours post transfection, cell only = 100%
Procedure: 2E5 Hep G2 cells were transfected with 1 μg/mL RNA-LNPs. At 72 hours post transfection, cell viability (2-well repeat) was determined with the CellTiter-Glo® reagent kit, according to the kit protocol, measured by a luminometer. Cell only as control (100%).
The cell viability was calculated according to the following formula: […]

Balb/c mice = assay: In vivo expression by IV, 0.05 mg/kg luciferase RNA-LNPs, IVIS luminescence; conditions: Formulation No. 001, RNA No. 331; female Balb/c mice, 0.05 mg*kg−1 intravenous, 24-hours post injection
Procedure, shortened: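 Female Balb/c mice (7-8 weeks, N=3) received 0.05 mg*kg−1 firefly-luciferase RNA-LNPs IV. Luciferin (15 mg/ml) was given IP at 24 and 72 h post-dose for IVIS whole-body luminescence. A second run imaged whole body, liver and spleen at 24 h only.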

MCP-1 = assay: In vivo tolerability by IV: serum MCP-1 by Luminex; parameters: species or system C57BL/6J mice; conditions: Formulation No. 001, RNA No. 331, male C57BL/6J mice, 1.0 mg*kg/1 intravenous; for MCP-1 at 2 h: 2 hours post injection; for MCP-1 at 24 h: 24 hours post injection
Procedure, shortened: (§2)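 Male C57BL/6J mice aged 6-8 weeks (N=3) received 1.0 mg*kg−1 firefly-luciferase RNA-LNPs intravenously, with PBS as negative control. Serum taken at 2 and 24 h post-injection was assayed for MCP-1 and IL-6 by Luminex.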

IL-6 = assay: In vivo tolerability by IV: serum IL-6 by Luminex; parameters: species or system C57BL/6J mice; conditions: Formulation No. 001, RNA No. 331, male C57BL/6J mice, 1.0 mg*kg/1 intravenous; for IL-6 at 2 h: 2 hours post injection; for IL-6 at 24 h: 24 hours post injection
Procedure, shortened: as §2

C57BL/6J mice = assay: In vivo expression by IV, 1.0 mg/kg luciferase RNA-LNPs, whole-body and organ IVIS luminescence; conditions: Formulation No. 001, RNA No. 331; male C57BL/6J mice, 1.0 mg*kg−1 intravenous, 24-hours post injection
Procedure, shortened: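 Male C57BL/6J mice, 6-8 weeks old (N=3), received 1.0 mg*kg−1 firefly-luciferase RNA-LNPs IV. At 24 h post-dose, luciferin (15 mg/ml) was given IP, and whole-body, liver, spleen, kidney, small and large intestine luminescence was imaged by IVIS.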

[5] = In vivo lipid metabolism by IV: ionizable lipid concentration in plasma and liver by LC-MS/MS; parameters: species or system Sprague-Dawley (SD) rats; conditions: IV 0.15 mg/kg RNA-LNPs (hEPO), male SD rats, individual animals N=3; for concentration at 6 h: male, Sprague-Dawley, rat, iv, 0.15 mg/kg
Procedure: In Vivo Lipid Metabolism by IV 7-8 week old, male Sprague-Dawley (SD) rats (N=3) were injected with 0.15 mg*kg−1 of RNA-LNPs encoding for hEPO by intravenous injection. At 1-/6-/96-/168-hours post injection, about 100 μL blood will be harvested and immediately added to the EDTAK2 containing tube. Place on wet ice and then centrifuged at 3000 g×5 min to obtain plasma. 30 μL plasma will be aliquoted to the 1.5 mL tubes. At terminal 6-/168-hours post injection, the rats will be euthanized with CO2, hemorrhaged immediately with cardiac puncture, respectively. The livers were harvested, weighed and washed with saline, then put into 50 ml centrifuge tube placed in liquid nitrogen, then transferred into wet ice, and finally stored at −80° C. immediately. Both plasma and liver samples were used for ionizable lipid concentration quantification by LC-MS/MS. The lower limit of quantitation (LLOQ) is 1 ng/mL in plasma or 11 ng/g in liver. BQL—Below the lower limit of quantitation (LLOQ).

[6] = Formulation No. 001, RNA No. 019 (hEPO)
[7] = Formulation No. 001, RNA No. 331
[8] = liver, 6 h post injection, read-out: Liver (ng/g), ionizable lipid concentration

| Structure (SMILES) | Size (nm) [1] [nm] | PDI [1, 6] | Size [1, 6] [nm] | PDI [1, 7] | EE (%) [2, 6] [%] | EE (%) [2, 7] [%] | In vitro Expression (Mean) (Hep G2 cells [3]) | In vitro cell viability (%) (Mean) (Hep G2 cells [4]) | Liver (p/s) (Mean) (Balb/c mice) | Spleen (p/s) (Mean) (Balb/c mice) | Whole body (p/s) (Mean) (Balb/c mice) | MCP-1 at 2 h (MCP-1) [pg/mL] | MCP-1 at 24 h (MCP-1) [pg/mL] | IL-6 at 2 h (IL-6) [pg/mL] | IL-6 at 24 h (IL-6) [pg/mL] | Kidney (p/s) (C57BL/6J mice) | Large intestine (p/s) (C57BL/6J mice) | Liver (p/s) (C57BL/6J mice) | Small intestine (p/s) (C57BL/6J mice) | Spleen (p/s) (C57BL/6J mice) | further results |
| --- | --- | --- | --- | --- | --- | --- | --- | --- | --- | --- | --- | --- | --- | --- | --- | --- | --- | --- | --- | --- | --- |
| CCCCCCCCCCCOC(=O)CCCCCOC(=O)C(COC(=O)NCCN1CCCCCC1)NC(=O)OCCCCCCCCOC(=O)C(CCCCCC)CCCCCCCC (stereo not drawn) [Lipid 924] | 78.20 | 0.16 | 87.04 | 0.05 | 90.41 | 90.24 | 6.15E+05 | 89.34 | 9.02E+08 | 2.37E+08 | 3.08E+09 | 1390 | 207 | 47.1 | 5.9 | 3.17E+07 | 3.25E+08 | 5.23E+09 | 7.18E+08 | 1.13E+09 | Whole body (p/s) (C57BL/6J mice): 4.40E+09 p/s; Plasma (ng/mL), ionizable lipid concentration ([5]; 1 h post injection): 5572 ng/mL and 3130 ng/mL and 7622 ng/mL; Liver (ng/g), ionizable lipid concentration ([5]; 6 h post injection): 1864 ng/g and 1834 ng/g; Plasma (ng/mL), ionizable lipid concentration ([5]; 6 h post injection): 2.59 ng/mL and 3.41 ng/mL and 298 ng/mL; concentration at 6 h [5, 8]: 1410 ng/g |
| CCCCCCCCCC(=O)OCCCCCCCOC(=O)C(COC(=O)NCCN1CCCCCC1)NC(=O)OCCCCCCCCOC(=O)C(CCCCCC)CCCCCCCC (stereo not drawn) [Lipid 934] | 70.72 | 0.08 | 70.30 | 0.03 | 93.44 | 95.74 | 5.28E+05 | 94.29 | 6.73E+08 | 2.04E+08 | 1.87E+09 | 1360 | 229 | 40.7 | 7.83 | 4.10E+07 | 1.17E+08 | 1.82E+09 | 6.60E+08 | 1.17E+09 | Whole body (p/s) (C57BL/6J mice): 2.46E+09 p/s; Plasma (ng/mL), ionizable lipid concentration ([5]; 1 h post injection): 3316 ng/mL and 5944 ng/mL and 9980 ng/mL; Plasma (ng/mL), ionizable lipid concentration ([5]; 6 h post injection): 691 ng/mL and 8.59 ng/mL; concentration at 6 h [5, 8]: 14 ng/g |
| CCCCC/C=C\CCOC(=O)CCCCCOC(=O)C(COC(=O)NCCN1CCCCCC1)NC(=O)OCCCCCCCCOC(=O)C(CCCCCC)CCCCCCCC (stereo not drawn) [Lipid 955] | 81.86 | 0.14 | 90.32 | 0.03 | 93.99 | 91.27 | 2.53E+05 | 95.28 | 7.00E+08 | 9.11E+07 | 2.15E+09 | 3350 | 580 | 1140 | 7.13 | 4.80E+07 | 3.44E+08 | 1.98E+09 | 6.59E+08 | 2.12E+09 | Whole body (p/s) (C57BL/6J mice): 4.06E+09 p/s; Plasma (ng/mL), ionizable lipid concentration ([5]; 1 h post injection): 6059 ng/mL and 23590 ng/mL and 15983 ng/mL; Liver (ng/g), ionizable lipid concentration ([5]; 6 h post injection): 703 ng/g and 396 ng/g; Plasma (ng/mL), ionizable lipid concentration ([5]; 6 h post injection): 11.9 ng/mL and 22 ng/mL; concentration at 6 h [5, 8]: 668 ng/g; concentration at 6 h ([5]; plasma, 6 h post injection, read-out: Plasma (ng/mL), ionizable lipid concentration): 17 ng/mL |
